In patent US20220275053A1, “MODIFIED […] PEPTIDE LIGANDS” (BicycleTx Limited, priority 2019, published 2022):
*1 amine or outer side, *2 acyl side, *3 side chain or, on linkers, in order; H or OH if unused. Where a SMILES comes first, the peptide text is derived from it. Bridges are numbered along the chain shown (N, C = ends). Roman numbers before positions name the chains, in order. [ ]: non-standard residue; d: D form. X1 = N=c1ccc2c(-c3ccc(C(=O)NCCOCCOCCN(CCOCCOCCOCCn4cc(CCC(=O)[*:1])nn4)CCOCCOCCOCCn4cc(CCC(=O)[*:2])nn4)cc3C(=O)O)c3ccc(N)c(S(=O)(=O)O)c3oc-2c1S(=O)(=O)O; TATA = O=C(CC[*:1])N1CN(C(=O)CC[*:2])CN(C(=O)CC[*:3])C1; tBuAla = CC(C)(C)C[C@H](N)C(=O)O; Nle = CCCC[C@H](N)C(=O)O

Key:
CD137 = biological target: T1, CD137 (Homo sapiens, UniProt Q07011); test: BCY15416 direct binding to CD4 and CD8 positive T-cells (CD3 stimulated PBMCs, flow cytometry)
T1 construct: Human peripheral blood mononuclear cells (PBMCs) were isolated from buffy coats from two donors; endogenous in cells
T1 sequence (Q07011 24-255): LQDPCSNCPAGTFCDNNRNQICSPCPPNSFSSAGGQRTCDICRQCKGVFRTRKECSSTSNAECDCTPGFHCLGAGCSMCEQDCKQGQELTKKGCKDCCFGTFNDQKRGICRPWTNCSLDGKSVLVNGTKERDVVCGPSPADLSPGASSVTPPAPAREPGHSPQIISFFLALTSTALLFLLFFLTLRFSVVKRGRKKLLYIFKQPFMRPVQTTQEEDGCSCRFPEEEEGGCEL
Experimental: To evaluate the affinity of a CD137 dimeric Bicycle® peptide conjugated to Alexa Fluor® 488, herein referred to as BCY15416, a binding assay utilizing CD3 stimulated primary peripheral blood mononuclear cells (PBMCs) was implemented.
On the day of the experiment, medium was prepared by supplementing RPMI-1640 (Gibco™ 11875-093; with L-glutamine) with 10% heat-inactivated fetal bovine serum (FBS; Corning® 35-011-CV), 10 mM HEPES (Gibco™ 15-630-080), and 1% Penicillin Streptomycin (Corning™ 30-002-CI), herein referred to as working medium. Previously isolated human peripheral blood mononuclear cells (PBMCs), from whole blood, were quick thawed in a water bath and washed once at 500 rpm for 5 minutes in 10 mL of prewarmed working medium. PBMC pellet was then resuspended in working medium at a concentration of 3×10^6 cells/mL. Subsequently, 100 μL of cell suspension was plated in a flat-bottom tissue-culture coated 96-well plate (Greiner CellStar® 655180). Anti-human CD3 (200 ng/mL; BioLegend® 317347; clone OKT3) was added to the cell plate (100 μL/well) at a final concentration of 100 ng/mL Whereas, for unstimulated controls 100 μL of working medium was added. Cells were incubated overnight (12-24 hours) at 37° C., 5% CO2.
Plates were then incubated for 1 hour at 37° C., 5% CO2. Post-incubation, plate was centrifuged at 500 rpm for 5 minutes and supernatant discarded. Samples were then washed once in 200 μL of 1× phosphate buffer saline (PBS; Gibco™ 10-010-023) at 500 rpm for 5 minutes. Cells were resuspended in 200 μL of PBS and transferred to a 96-well V-bottom polypropylene plate (Greiner Bio-One 651201). Samples were then centrifuged at 500 rpm for 5 minutes and supernatant was discarded.
Preparation of samples for flow cytometry: Zombie Violet™ Fixable Viability Dye (BioLegend® 423113) was prepared as a 1:1000 dilution in PBS and 100 μL of viability dye was added to each well and incubated in the dark at 4° C. for 30 minutes. Subsequently, wells were washed with 100 μL of PBS for 5 minutes at 500 rpm and supernatant was discarded. Next, human TruStain FcX™ block (BioLegend® 422302) was prepared by diluting 1.5 μL of FcX in 25 μL of stain buffer (1×PBS supplemented with 2% FBS). Fc block solution (25 μL/well) was incubated at room temperature (RT) for 10 minutes in the dark. […] Cells resuspended in 200 μL of stain buffer were kept at 4° C. and in the dark until read by BD FACSCelesta™ flow cytometer and FCS files were analyzed in FlowJo™.
Cells were gated on lymphocytes→singlets→live→CD4+ or CD8+→CD137+/− and the geometric mean of Alexa Fluor® 488 (conjugated to BCY15416) was calculated from the CD137+ and CD137− populations shown below. […] Calculated binding affinity (kd,app) for each donor appear in Table 5.

human CD137 = biological target: T2, human CD137 (human, UniProt Q07011 24-255); test: flow cytometry, direct binding to activated human CD8+/CD137+ T cells
T2 construct: whole, on cells; Endogenous receptor on CD3-stimulated human PBMCs or purified CD8+ T cells; also called CD137 receptor; 4-1BB
T2 sequence (Q07011 24-255): as above

Molecule	binding to CD137+ T-cells (Alexa Fluor 488 geometric mean) (CD137; CD137+CD4+ and CD137+CD8+ T-cells, three human PBMC donors, FIG. 6)	binding to CD137− T cells (CD137; CD137− CD4 and CD8 T cells, FIGS. 6A and 6B)	binding affinity in CD137− populations (CD137; CD137− populations for both CD4+ and CD8+)	binding affinity (range in words) (CD137; both CD137+CD4+ and CD137+CD8+ populations)	binding result (human CD137)
CCCC[C@@H]1NC(=O)[C@H](Cc2ccc(O)cc2)NC(=O)[C@@H]2CCCN2C(=O)[C@H](CC(=O)O)NC(=O)[C@H](C)NC(=O)[C@H](Cc2ccccc2)NC(=O)[C@@H]2CSCCC(=O)N3CN(CN(C3)C(=O)CCSC[C@@H](C(=O)N[C@@H](C)C(N)=O)NC1=O)C(=O)CCSC[C@H](NC(C)=O)C(=O)N[C@@H](CC(C)(C)C)C(=O)N1CCC[C@H]1C(=O)N[C@@H](CCC(=O)O)C(=O)N[C@H](CCCCNC(=O)CCc1cn(CCOCCOCCOCCN(CCOCCOCCNC(=O)c3ccc(-c4c5ccc(=N)c(S(=O)(=O)O)c-5oc5c(S(=O)(=O)O)c(N)ccc45)c(C(=O)O)c3)CCOCCOCCOCCn3cc(CCC(=O)NCCCC[C@H]4NC(=O)[C@H](CCC(=O)O)NC(=O)[C@@H]5CCCN5C(=O)[C@H](CC(C)(C)C)NC(=O)[C@@H](NC(C)=O)CSCCC(=O)N5CN6CN(C5)C(=O)CCSC[C@H](NC(=O)[C@H](Cc5ccc(O)cc5)NC(=O)[C@@H]5CCCN5C4=O)C(=O)N[C@@H](Cc4ccccc4)C(=O)N[C@@H](C)C(=O)N[C@@H](CC(=O)O)C(=O)N4CCC[C@H]4C(=O)N[C@@H](Cc4ccc(O)cc4)C(=O)N[C@@H](CCCC)C(=O)N[C@H](C(=O)N[C@@H](C)C(N)=O)CSCCC6=O)nn3)nn1)C(=O)N1CCC[C@H]1C(=O)N[C@@H](Cc1ccc(O)cc1)C(=O)N2 [BCY15416] (I: Ac-C[tBuAla]PE[dK]PYCFADPY[Nle]CA-NH2 / II: Ac-C[tBuAla]PE[dK]PYCFADPY[Nle]CA-NH2; linker I:1-I:8-I:15, II:1-II:8-II:15 via TATA; linker I:5-II:5 via X1; C-terminus assumed)	binding exclusively to the CD137+CD4+ T-cells and CD137+CD8+ T-cells, in a dose-dependent manner	does not bind	unable to be calculated	sub-nanomolar range	–
CIEEGQYCFADPYMCAX (N-terminal acetyl; C-terminal Pra (propargylglycine) amide (CONH2); the three Cys cyclised on the TATA scaffold; joined through Pra to spacer SA (n = 23) on central hinge moiety C; fluorescein on the hinge without spacer (formula (II)), also called fluorescent CD137 multimer; fluorescent CD137 dimer) [BCY7340]	–	–	–	–	binds
ACIEEGQYCFADPYXCX (N-terminal acetyl; Nle (norleucine) at position 12 of the core; C-terminal Dap(Lys(PYA)) amide (CONH2); the three Cys (Ci, Cii, Ciii) cyclised on the TATA scaffold; joined through PYA to spacer SA (n = 23) on central hinge moiety A; Alexa Fluor 488 conjugated to one of the four peptides (formula (I)), also called fluorescent CD137 multimer; fluorescent tetramer) [BCY9931]	–	–	–	–	binds
ACIEEGQYCFADPYXCX (N-terminal acetyl; Nle (norleucine) at position 12 of the core; C-terminal Dap(PYA) amide (CONH2); the three Cys cyclised on the TATA scaffold; joined through PYA to spacer SA (n = 10) on central hinge moiety B; Alexa Fluor 488 on the hinge without spacer (formula (II)), also called fluorescent CD137 multimer; fluorescent trimer) [BCY9932]	–	–	–	–	binds
